Data set [1] is described as follows: Sorption profile (DVS sorption balance), hygroscopic characteristics. Format: physicochemical. The note with it: relative humidity range between 10-90%; crystalline form. How it is done:
Sorption Profile (DSV Diagram, Kinetic & Isothermic Plot, FIG. 3)
Technical Data Relating to the Sorption Balance Used:
DVS-1 made by Surface Measurement Systems (=SMS) for analysing the hygroscopic characteristics; humidity profile of 10-90% r.h. In 10% steps, recording both a sorption and a desorption profile, weight: 10-20 mg

The nature of a further data set: Thermoanalysis (DSC/TG). Format: physicochemical. As to conditions: heating rate 10 K/min, crystalline form (FIG. 2). The method, then: Thermoanalysis (DSC/TG Diagram, FIG. 2)
Technical Data Relating to the Thermoanalytical DSC Device Used:
DSC 822 made by Mettler Toledo; heating rate: 10 K/min; type of crucible: perforated aluminium crucible; atmosphere: N2, 80 ml/min flux; weight: 3-10 mg.
Technical Data Relating to the Thermoanalytical TG Device Used:
TGA/SDTA 851 Made by Mettler Toledo with IR coupling (Nicolet FT-IR 4700) for analysing the volatile fractions driven off; heating rate: 10 K/min; type of crucible: open aluminium oxide crucible; atmosphere: N2, 20 ml/min flux; weight: 15-25 mg.

Each structure is given as a SMILES string.

As to `CCC1(CC)OC(=O)N(CCC(C)(C)NC[C@H](O)c2ccc(O)c(NS(C)(=O)=O)c2)c2ccccc21` [compound 1, N-(5-{(R)-2-[3-(4,4-diethyl-2-oxo-4H-benzo[d][1,3]oxazin-1-yl)-1,1-dimethyl-propylamino]-1-hydroxy-ethyl}-2-hydroxy-phenyl)-methanesulphonamide], the water absorption entry in data set [1] is “less than 0.5 wt. %”. For the same molecule, the “thermally stable at a thermal load of up to” value in the data set “Thermoanalysis (DSC/TG)” was “up to 210 °C”.

The record behind these values is patent US8394791B2, “Crystalline, enantiomerically pure salt form of a beta-agonist, and the use thereof as a drug” (Boehringer Ingelheim International GmbH, priority 2008, dated 2013).
